The subject of the test is rabbit skeletal myofibrils (approximately 90% fast fibers). Nature of the test: Activation of fast skeletal myofibrils (PUMA coupled-enzyme ATPase assay, AC1.4). In kind it is biochemical. The settings on record: concentration at which the compound increased enzymatic activity by 40%, calcium at pCa25.

Structures are written as SMILES.

Take `Oc1ccc(CCNc2nc(Cc3ccc(F)cc3)ns2)cc1` [4-[2-({3-[(4-fluorophenyl)methyl]-1,2,4-thiadiazol-5-yl}amino)ethyl]phenol]: the “Mean AC1.4” value (Table 2) is recorded as “D (D=>20 uM)”.
With `CC(C)(CNc1nc(Cc2ccc(O)cc2)ns1)c1ccc(Cl)cc1` [4-[(5-{[2-(4-chlorophenyl)-2-methylpropyl]amino}-1,2,4-thiadiazol-3-yl)methyl]phenol], the “Mean AC1.4” value (Table 2) is on record as “A (A=<1 uM)”.
As for `CC(C)(CNc1nc(Cc2ccc(O)cc2)ns1)c1ccc(F)cc1` [4-[(5-{[2-(4-fluorophenyl)-2-methylpropyl]amino}-1,2,4-thiadiazol-3-yl)methyl]phenol], the “Mean AC1.4” value (Table 2) is on record as “A (A=<1 uM)”.
For the compound `CC(C)(CNc1nc2c(Cl)cc(C#N)cc2s1)c1ccc(F)cc1` [4-chloro-2-(2-(4-fluorophenyl)-2-methylpropylamino)benzo[d] thiazole-6-carbonitrile], under “Table 4”, the “Mean AC1.4” value is given as “A (A=<1 uM)”.
`CC(C)(CNc1nc2c(Cl)cc(C(N)=O)cc2s1)c1ccc(F)cc1` [4-chloro-2-(2-(4-fluorophenyl)-2-methylpropylamino)benzo[d] thiazole-6-carboxamide]: the “Mean AC1.4” value (Table 4) is reported as “A (A=<1 uM)”.
Still for that read-out and setting: the same measure for `N#Cc1cc(Cl)c2nc(NCC3(c4ncccc4F)CCC3)sc2c1` [4-chloro-2-((1-(3-fluoropyridin-2-yl)cyclobutyl)methylamino)benzo[d] thiazole-6-carbonitrile]: “B (B=1-10 uM)”.
Regarding `NC(=O)c1cc(Cl)c2nc(NCC3(c4ncccc4F)CCC3)sc2c1` [4-chloro-2-((1-(3-fluoropyridin-2-yl)cyclobutyl)methylamino)benzo[d] thiazole-6-carboxamide], the “Mean AC1.4” value (Table 4) is “A (A=<1 uM)”.
On to `NC(=O)c1ccc(Cl)c2nc(NC[C@]3(c4ncccc4F)C[C@H](F)C3)sc12` [4-chloro-2-((3-fluoro-1-(3-fluoropyridin-2-yl)cyclobutyl)methylamino)benzo[d] thiazole-7-carboxamide], for which, where the note is “Table 4”, the “Mean AC1.4” value is given as “B (B=1-10 uM)”.
With `NC(=O)c1ccc(Cl)c(-c2nnc(NC[C@]3(c4ncccc4F)C[C@H](F)C3)s2)c1` [4-chloro-3-(5-((3-fluoro-1-(3-fluoropyridin-2-yl)cyclobutyl)methylamino)-1,3,4-thiadiazol-2-yl)benzamide], where the note is “Table 3”, the “Mean AC1.4” value is given as “A (A=<1 uM)”.
Consider `N#Cc1ccc(Cl)c(-c2nnc(NC[C@]3(c4ncccc4F)C[C@@H](F)C3)s2)c1` [4-chloro-3-(5-(((cis)-3-fluoro-1-(3-fluoropyridin-2-yl)cyclobutyl)methylamino)-1,3,4-thiadiazol-2-yl)benzonitrile], for which the “Mean AC1.4” value (Table 3) was “B (B=1-10 uM)”.
On the same count and under the same terms, for `N#Cc1ccc(Cl)c(-c2nnc(NC[C@]3(c4ncccc4F)C[C@H](F)C3)s2)c1` [4-chloro-3-(5-(((trans)-3-fluoro-1-(3-fIuoropyridin-2-yl)cyclobutyl)methylamino)-1,3,4-thiadiazol-2-yl)benzonitrile] the value was “A (A=<1 uM)”.
On to `CC(C)(CNc1nc2c(Cl)cccc2s1)c1ccc(F)cc1` [4-chloro-N-(2-(4-fluorophenyl)-2-methylpropyl)benzo[d]thiazol-2-amine], for which the “Mean AC1.4” value (Table 4) is given as “A (A=<1 uM)”.
Still for that read-out and setting: for `CC(C)(CNc1nc2c(C#N)cc(C(N)=O)cc2s1)c1ccc(F)cc1` [4-cyano-2-(2-(1-fluorophenyl)-2-methylpropylamino)benzo[d] thiazole-6-carboxamide] the value was “A (A=<1 uM)”; for `N#Cc1cc(C(N)=O)cc2sc(NCC3(c4ncccc4F)CCC3)nc12` [4-cyano-2-((1-(3-fluoropyridin-2-yl)cyclobutyl)methylamino)benzo[d] thiazole-6-carboxamide], “A (A=<1 uM)”.
For `Cn1nc(NC2(c3ncccc3F)CCC2)nc1-c1cc(C(N)=O)ccc1F` [4-fluoro-3-(5-(1-(3-fluoropyridin-2-yl)cyclobutylamino)-2-methyl-2H-1,2,4-triazol-3-yl)benzamide], the “Mean AC1.4” value (Table 5) is listed as “D (D=>20 uM)”.
The same measure, in the same setting: the same measure for `Cn1nc(NC2(c3ncccc3F)CCC2)nc1-c1cc(C#N)ccc1F` [4-fluoro-3-(5-(1-(3-fluoropyridin-2-yl)cyclobutylamino)-2-methyl-2H-1,2,4-triazol-3-yl)benzonitrile]: “D (D=>20 uM)”; for `NC(=O)c1ccc(F)c(-c2nnc(NC3(c4ncccc4F)CCC3)[nH]2)c1` [4-fluoro-3-(5-(1-(3-fluoropyridin-2-yl)cyclobutylamino)-4H-1,2,4-triazol-3-yl)benzamide]: “D (D=>20 uM)”.
On to `N#Cc1ccc(F)c(-c2nnc(NC3(c4ncccc4F)CCC3)[nH]2)c1` [4-fluoro-3-(5-(1-(3-fluoropyridin-2-yl)cyclobutylamino)-4H-1,2,4-triazol-3-yl)benzonitrile], for which the “Mean AC1.4” value (Table 5) was “D (D=>20 uM)”.
In the case of `CC(C)(Nc1nnc(-c2cc(C(N)=O)ccc2F)o1)c1ccc(F)cc1` [4-fluoro-3-(5-(2-(4-fluorophenyl)propan-2-ylamino)-1,3,4-oxadiazol-2-yl)benzamide], the “Mean AC1.4” value (Table 5) is reported as “C (C=10-20 uM)”.
As for `CC(C)(Nc1nnc(-c2cc(C#N)ccc2F)o1)c1ccc(F)cc1` [4-fluoro-3-(5-(2-(4-fluorophenyl)propan-2-ylamino)-1,3,4-oxadiazol-2-yl)benzonitrile], for the setting “Table 5”, the “Mean AC1.4” value is on record as “D (D=>20 uM)”.
Still for that read-out and setting: for `Cn1c(NC(C)(C)c2ccc(F)cc2)nnc1-c1cc(C(N)=O)ccc1F` [4-fluoro-3-(5-(2-(4-fluorophenyl)propan-2-ylamino)-4-methyl-4H-1,2,4-triazol-3-yl)benzamide] the value was “D (D=>20 uM)”.
Take `NC(=O)c1ccc(F)c(-c2nnc(NCC3(c4ncccc4F)CCC3)s2)c1` [4-fluoro-3-(5-((1-(3-fluoropyridin-2-yl)cyclobutyl)methylamino)-1,3,4-thiadiazol-2-yl)benzamide]: the “Mean AC1.4” value (Table 3) is reported as “A (A=<1 uM)”.
`N#Cc1ccc(F)c(-c2nnc(NCC3(c4ncccc4F)CCC3)s2)c1` [4-fluoro-3-(5-((1-(3-fluoropyridin-2-yl)cyclobutyl)methylamino)-1,3,4-thiadiazol-2-yl)benzonitrile]: where the note is “Table 3”, the “Mean AC1.4” value was “B (B=1-10 uM)”.
As to `NC(=O)c1ccc(F)c(-c2nnc(NC[C@]3(c4ncccc4F)C[C@H](F)C3)s2)c1` [4-fluoro-3-(5-((3-fluoro-1-(3-fluoropyridin-2-yl)cyclobutyl)methylamino)-1,3,4-thiadiazol-2-yl)benzamide], the “Mean AC1.4” value (Table 3) was “A (A=<1 uM)”.
On the same count and under the same terms, for `N#Cc1ccc(F)c(-c2nnc(NC[C@]3(c4ncccc4F)C[C@H](F)C3)s2)c1` [4-fluoro-3-(5-((3-fluoro-1-(3-fluoropyridin-2-yl)cyclobutyl)methylamino)-1,3,4-thiadiazol-2-yl)benzonitrile] the value was “B (B=1-10 uM)”.
On to `NC(=O)c1ccc(F)c(-c2nsc(NC3(c4ncccc4F)CCC3)n2)c1` [4-fluoro-3-(5-{[(3-fluoro(2-pyridyl))cyclobutyl]amino}(1,2,4-thiadiazol-3-yl))benzamide], for which the “Mean AC1.4” value (Table 2) is reported as “D (D=>20 uM)”.
For the compound `Fc1cccnc1C1(CNc2nnc(-c3ccccc3Cl)s2)CCC1` [5-(2-chlorophenyl)-N-((1-(3-fluoropyridin-2-yl)cyclobutyl)methyl)-1,3,4-thiadiazol-2-amine], the “Mean AC1.4” value (Table 3) is recorded as “A (A=<1 uM)”.
The same measure, in the same setting: the same measure for `CC(C)(CNc1nnc(-c2ccc3[nH]nc(N)c3c2)s1)c1ccc(F)cc1` [5-(3-amino-1H-indazol-5-yl)-N-(2-(4-fluorophenyl)-2-methylpropyl)-1,3,4-thiadiazol-2-amine]: “A (A=<1 uM)”; for `Fc1cccnc1C1(CNc2nnc(-c3ccc(Br)cc3)s2)CCC1` [5-(4-bromophenyl)-N-((1-(3-fluoropyridin-2-yl)cyclobutyl)methyl)-1,3,4-thiadiazol-2-amine]: “B (B=1-10 uM)”.
The same measure, in the same setting: for `Cc1cc(C#N)sc1-c1nnc(NC[C@]2(c3ncccc3F)C[C@H](F)C2)s1` [5-(5-((3-fluoro-1-(3-fluoropyridin-2-yl)cyclobutyl)methylamino)-1,3,4-thiadiazol-2-yl)-4-methylthiophene-2-carbonitrile] the value was “B (B=1-10 uM)”; for `Cc1cc(C(N)=O)sc1-c1nnc(NC[C@]2(c3ncccc3F)C[C@H](F)C2)s1` [5-(5-((3-fluoro-1-(3-fluoropyridin-2-yl)cyclobutyl)methylamino)-1,3,4-thiadiazol-2-yl)-4-methylthiophene-2-carboxamide], “B (B=1-10 uM)”.
Regarding `N#Cc1ccc(-c2nnc(NC[C@]3(c4ncccc4F)C[C@H](F)C3)s2)s1` [5-(5-((3-fluoro-1-(3-fluoropyridin-2-yl)cyclobutyl)methylamino)-1,3,4-thiadiazol-2-yl)thiophene-2-carbonitrile], the “Mean AC1.4” value (Table 3) was “D (D=>20 uM)”.
Consider `NC(=O)c1ccc(-c2nnc(NC[C@]3(c4ncccc4F)C[C@H](F)C3)s2)s1` [5-(5-((3-fluoro-1-(3-fluoropyridin-2-yl)cyclobutyl)methylamino)-1,3,4-thiadiazol-2-yl)thiophene-2-carboxamide], for which, where the note is “Table 3”, the “Mean AC1.4” value is recorded as “B (B=1-10 uM)”.
Turning to `Fc1cccnc1[C@]1(CNc2nnc(-c3cc(Br)ccc3Cl)s2)C[C@H](F)C1` [5-(5-bromo-2-chlorophenyl)-N-(((cis)-3-fluoro-1-(3-fluoropyridin-2-yl)cyclobutyl)methyl)-1,3,4-thiadiazol-2-amine], the “Mean AC1.4” value (Table 3) is reported as “A (A=<1 uM)”.
Regarding `Fc1cccnc1[C@]1(CNc2nnc(-c3cc(Br)ccc3Cl)s2)C[C@@H](F)C1` [5-(5-bromo-2-chlorophenyl)-N-(((trans)-3-fluoro-1-(3-fluoropyridin-2-yl)cyclobutyl)methyl)-1,3,4-thiadiazol-2-amine], the “Mean AC1.4” value (Table 3) is listed as “A (A=<1 uM)”.
Consider `Cn1nc(NC2(c3ncccc3F)CCC2)nc1-c1cc(Br)ccc1F` [5-(5-bromo-2-fluorophenyl)-N-(1-(3-fluoropyridin-2-yl)cyclobutyl)-1-methyl-1H-1,2,4-triazol-3-amine], for which, for the setting “Table 5”, the “Mean AC1.4” value was “D (D=>20 uM)”.
For the compound `Cn1nc(-c2cc(Br)ccc2F)nc1NC1(c2ncccc2F)CCC1` [5-(5-bromo-2-fluorophenyl)-N-(1-(3-fluoropyridin-2-yl)cyclobutyl)-2-methyl-2H-1,2,4-triazol-3-amine], where the note is “Table 5”, the “Mean AC1.4” value is recorded as “D (D=>20 uM)”.

The values above are taken from patent US9278962B2 (Cytokinetics, Inc., priority 2011, dated 2016).
